Values of other authors, collected in patent US20250275973A1, “USE OF ALC1 INHIBITORS AND SYNERGY WITH PARPI” (EISBACH BIO GMBH, priority 2022, published 2025).

System: GFP-tagged PARP1 and PARP2
Settings: U2OS cells treated with PARPi; background section

Cn1ncnc1[C@H]1c2n[nH]c(=O)c3cc(F)cc(c23)N[C@@H]1c1ccc(F)cc1 [talazoparib]
retention/recruitment of GFP-tagged PARP1 and PARP2 at induced DNA lesions: enhanced retention

C[C@]1(c2nc3c(C(N)=O)cccc3[nH]2)CCCN1 [veliparib]
retention/recruitment of GFP-tagged PARP1 and PARP2 at induced DNA lesions: overall less PARP1/PARP2 recruitment
